Experimental data published in ChEMBL document CHEMBL2062491, “Absolute structures of monoterpenoids with a δ-lactone-containing skeleton from Ligularia hodgsonii” (J Nat Prod, 2012).

Tests used:
Type in all cases: functional, cell-based
[1] = system: HL-60; test: Cytotoxicity against human HL60 cells after 48 hrs by SRB assay
[2] = system: SMMC-7721; test: Cytotoxicity against human SMMC7721 cells after 48 hrs by SRB assay
[3] = system: HeLa; test: Cytotoxicity against human HeLa cells after 48 hrs by SRB assay

**Q.** What does the source list for COC(=O)[C@]1(C)OC(=O)[C@]2(C[C@H]1C)O[C@@H]2C [LIGUHODGCINS B]?
**A.** IC50 ([1]; hl-60): 151 µM; IC50 ([2]; smmc-7721): 162 µM; IC50 ([3]; hela): 168 µM

**Q.** With CO[C@@]12[C@H](COC(N)=O)C3=C(C(=O)C(C)=C(N)C3=O)N1C[C@@H]1N[C@@H]12 [MITOMYCIN] as the molecule, how does the IC50 ([1]; Homo sapiens, HL-60, 48 h, read-out: IC50) read?
**A.** 1.8 µM

**Q.** And the IC50 ([2]; Homo sapiens, SMMC-7721, 48 h, read-out: IC50)?
**A.** 5.6 µM

**Q.** What about the IC50 ([3]; Homo sapiens, HeLa, 48 h, read-out: IC50) of the same molecule?
**A.** 3.4 µM

**Q.** What does the source list for COC(=O)[C@]1([C@H](C)Cl)C[C@@H](C)[C@@](C)(OC(C)=O)C(=O)O1 [LIGUHODGCINS A]?
**A.** IC50 ([1]; hl-60): 141 µM; IC50 ([2]; smmc-7721): 156 µM; IC50 ([3]; hela): 171 µM
